Structures can show the parent of a compound that is named as a salt. Where two headings read alike, the source gives them in different places.
Assays:
[1] = test system: RPTEC/TERT1 cells; assay type: cell-based, human
Experimental: For high content imaging, NRK-52E and RPTEC/TERT1 cells were cultivated in µ-clear half well area microtiter plates (Greiner) according to the protocol described for the cytotoxicity assay with slight modification. Briefly, NRK-52E cells were seeded at 5,000 cells in 100 µL growth medium per well and were incubated under standard growth conditions for 48 h prior to treatment. RPTEC/TERT1 cells were seeded at 15,000 cells in 100 µL growth medium per well and incubated under standard growth conditions for 7–8 days, until cells reached confluence and started to differentiate. This was indicated by the formation of three-dimensional structures referred to as domes which were identified by regular microscopic inspection of the plates. Only differentiated cell cultures with detectable domes were assayed. Cells of both cell lines were treated with serially diluted Polymyxin B sulfate (concentration range 7.8 to 2,000 µM) for 1, 2, 4, 6, or up to 24 h. The assay was carried out on three biological replicates defined as three different non-consecutive passages of the cell culture. Each biological replicate at each treatment concentration was assayed in triplicate wells per plate.
Following treatment, cells were stained with two different combinations of fluorescent dyes: NRK-52E cells with 50 pg/μL LysoView™ 633 (Biotium) and 1 µM SYTO 16 (Thermo Scientific), respectively, for lysosomes and nuclei; RPTEC/TERT1 cells with 10 nM LysoTracker™ Red (Thermo Scientific) and 10 ng/μL Hoechst 33342 (Merck-Sigma Aldrich), respectively, for lysosomes and nuclei. For each cell line a staining solution was obtained by mixing the lysosomes and nuclei dyes in cell culture medium at the concentrations indicated above. The cells were stained by replenishing the medium for 100 µL of staining solution per well followed by incubation at 37°C and 5% CO2 for 30 min before imaging.
Images were acquired with a fully automated fluorescence confocal Opera™ QEHS system (PerkinElmer, United Kingdom) using a ×40 air UPlanApo objective (Olympus) with 0.85 numerical aperture. NRK-52E cells stained with the dyes SYTO 16 and LysoView™633 were imaged with the laser lines 488 and 635 nm, using a 488/561/635 nm primary dichroic mirror, a 510 nm long pass (LP) detection dichroic mirror, a 540/75 nm band pass (BP) emission filter for SYTO 16 and a 690/50 nm BP emission filter for LysoView™ 633. RPTEC/TERT1 cells stained with the dyes Hoechst 33342 and LysoTracker™Red were imaged with the laser lines 405 and 561 nm, using a 405/561/635 nm primary dichroic mirror, a 580 nm LP detection dichroic mirror, a 450/50 nm BP emission filter for Hoechst 33342 and a 600/40 nm BP emission filter for LysoTracker™Red. To prevent cross talk of the fluorescent signals, each dye was imaged consecutively using the combination of lasers and filters described above. The settings for laser power, exposure time and focal height were kept constant for each cell line across all the experiments. For NRK-52E cells images were acquired at 25 randomly distributed positions in a well at a single focal plane whereas for RPTEC/TERT1 cells due to the development of dome structures images were acquired at 9 random positions at three focal planes each 1 μm apart.
The images were analyzed by custom-made image analysis scripts either with the imaging analysis software Acapella (version 2.8 PerkinElmer) or Columbus (version 2.4.0 PerkinElmer). The scripts included modules for the identification and counting of the cell nuclei to extrapolate the number of cells per well, for definition of a cytoplasm surrounding the nucleus, for identification and counting of the lysosome vesicles within the cytoplasm. Additional cellular parameters included the nuclei size, intensity, the cell size (cell area), the lysosome size (lysosome area), intensity and the number of lysosomes normalized by the cell area to compensate for difference in size of the cells.

[2] = test system: RPTEC/TERT1 and NRK-52E cells; test: In vitro key event assays (LAMP-1/2, cathepsin D, cell viability) compared across both cell models; assay type: cell-based, human and rat; conditions: for Effect on cell viability / cytotoxicity (KE3): CellTiter-Glo
Experimental: Cells were plated into 96-well tissue culture plates (10,000 cells per well) and were allowed to grow for 48 h (NRK-52E) respectively 10 d (RPTEC/TERT1) prior to 24 h treatment with model stressors. Stock solution for each compound (2000 µM) was prepared in growth medium and serial dilutions (1:1) were made before each experiment. At the end of the 24 h treatment, cell viability was measured using the CellTiter-Glo® assay (Promega). CellTiter-Glo® reagents and buffer were mixed under light-protected conditions and 100 µL CellTiter-Glo® solution was added directly to each well followed by 2 min incubation on an orbital shaker and 10 min incubation at room temperature in the dark to stabilize the luminescence signal. The suspension was mixed via pipetting and 50 µL were transferred into white 96-well plates (PerkinElmer Inc.). The luminescence signal was measured on a multiplate reader (Mithras LB 940; Berthold). Each assay was performed in three independent experiments carried out in triplicates.
For immunocytochemistry experiments, cells were seeded into 8-well chamber slides (Ibidi) at a density of 140 cells per µL in 300 µL growth medium and were allowed to grow for 48 h (NRK-52E) or 10 d (RPTEC/TERT1) respectively. For treatment, stock solutions (1,000 µM) of compounds dissolved in growth medium were freshly prepared and serial dilutions were made before exposure of cells for 24 h. After treatment, cells were washed twice with 150 µL PBS and fixed with 150 µL 4% paraformaldehyde in 1 x PBS for 10 min at room temperature. After fixation, cells were washed 10 min with 150 µL PBS on an orbital shaker followed by permeabilization with 150 µL 0.2% Triton X-100 in 1 x PBS for 5 min at room temperature on an orbital shaker. The permeabilized cells were washed twice with 1 x PBS (150 µL) for 10 min at room temperature on an orbital shaker and then incubated with 150 µL 5% BSA dissolved in 1 x PBS for 1 h at room temperature to block unspecific binding sites. After blocking, 100 µL primary antibody diluted 1:100 in 1% BSA in 1 x PBS were directly pipetted onto the cells and incubated overnight at 4°C. The following antibodies were employed for NRK-52E cells: Anti-LAMP-1 monoclonal IgG1 kappa mouse antibody (Santa Cruz; sc-20011), anti-Cathepsin D mouse monoclonal IgG2 kappa antibody (Santa Cruz; sc-377124); for RPTEC/TERT1 cells: Anti-LAMP-2 monoclonal mouse antibody (Santa Cruz; sc-18822), anti-Cathepsin D mouse monoclonal IgG2b kappa (Novus Biologicals; NBP1-04278); for both cell lines anti-megalin mouse monoclonal IgG1 antibody (Santa Cruz, sc-515772).
After incubation with primary antibody, cells were washed three times for 15 min with 0.2% Tween in 1 x PBS (150 µL) on an orbital shaker. Cells were incubated for 1 h at room temperature with 100 µL CFL 488-conjugated mouse IgG kappa binding protein (1:50) (m-IgGκ BP-CFL 488; Santa Cruz, sc-516176). After incubation the cells were washed three times for 15 min with 0.2% Tween in 1 x PBS on an orbital shaker and once with 150 µL sterile water. Phalloidin-tetramethylrhodamine B isothiocyanate (TRITC) was used to stain the cytoskeleton and was diluted in 100% methanol to a stock concentration of 0.1 mg/ml and further diluted in 1 x PBS to a working concentration of 0.095 µM. After cells were washed once with 1 x PBS for 10 min at room temperature 150 µL phalloidin-TRITC working solution was added and the cells were incubated on an orbital shaker at room temperature for 60–90 min. After incubation, phalloidin-TRITC solution was aspirated, and the cells were washed once with 1 x PBS. Chamber slides were allowed to dry for 15 min at room temperature. To preserve fluorescence 50–100 µL DAPI mounting medium (Vectashield®; Vectorlab, Biozol) was added to the cells and chamber slides were stored at 4°C in the dark until image acquisition. […]

[3] = RPTEC/TERT1 and NRK-52E, 24 h treatment
[4] = RPTEC/TERT1, 24 h, 7.8 to 2000 µM (smaller range for CdCl2 and 4-aminophenol), triplicate experiments, Figure S1

Compound | Effect on lysosomal endpoints in high content screening [1, 4] | further results
Nc1ccc(O)cc1 [4-aminophenol] |  | Effect on lysosomal endpoints in high content screening [1]: minor changes
[Cl][Cd][Cl] [CdCl2, cadmium chloride] | most prominent effects on lysosomal endpoints | Cytotoxicity compared between RPTEC/TERT1 and NRK-52E cells ([2]; 24 h treatment, cell viability): more toxic in NRK-52E cells; Effect on LAMP-1/2 expression (KE1) ([2]; RPTEC/TERT1 and NRK-52E, 24 h, immunofluorescence image analysis): only minor effects on LAMP1/2 expression; Effect on cell viability / cytotoxicity (KE3) [2, 3]: significant cytotoxicity
N[C@@H](CSC(Cl)=C(Cl)Cl)C(=O)O [TCVC, S-(1,2,2-trichlorovinyl)-L-cysteine] | minor changes | 
Nc1ccn(C[C@@H](CO)OCP(=O)(O)O)c(=O)n1 [cidofovir] | minor changes | 
CNC(C)C1CCC(N)C(OC2C(N)CC(N)C(OC3OCC(C)(O)C(NC)C3O)C2O)O1 (centres unmarked) [gentamicin] | most prominent effects on lysosomal endpoints | 
CC(C)OC(=O)OCOP(=O)(CO[C@H](C)Cn1cnc2c(N)ncnc21)OCOC(=O)OC(C)C [tenofovir disoproxil fumarate] | minor changes | 
C[C@H](Cn1cnc2c(N)ncnc21)OCP(=O)(O)O [tenofovir] | minor changes | 
CN[C@H](CC(C)C)C(=O)N[C@H]1C(=O)N[C@@H](CC(N)=O)C(=O)N[C@H]2C(=O)N[C@H]3C(=O)N[C@H](C(=O)N[C@H](C(=O)O)c4cc(O)cc(O)c4-c4cc3ccc4O)[C@H](O)c3ccc(c(Cl)c3)Oc3cc2cc(c3O[C@@H]2O[C@H](CO)[C@@H](O)[C@H](O)[C@H]2O[C@H]2C[C@](C)(N)[C@H](O)[C@H](C)O2)Oc2ccc(cc2Cl)[C@H]1O [vancomycin] |  | Effect on lysosomal endpoints in high content screening [1]: most prominent effects on lysosomal endpoints
Polymyxin B nonapeptide | most prominent effects on lysosomal endpoints | Rank order of effects of the 3 polymyxin derivatives across all KEs ([2]; RPTEC/TERT1 and NRK-52E, 24 h): least toxic; Effect on cell viability / cytotoxicity (KE3) [2, 3]: low

From publication PMC9061999, “Application of the Adverse Outcome Pathway Concept to In Vitro Nephrotoxicity Assessment: Kidney Injury due to Receptor-Mediated Endocytosis and Lysosomal Overload as a Case Study” (Frontiers in Toxicology, 2022)
